“Also recorded” adds a separate entry of the source.
Columns and labels:
human bone marrow cells [1] = test: Cytotoxicity to human bone marrow cells (methocult, total colony forming units); format: cell-based; details: 2 and 24 hours treatment, up to 20 μM; sodium salt
Procedure: FIG. 2. ON 01210.Na is not cytotoxic to human bone marrow cells in vitro. Human bone marrow cells were treated with various concentrations of ON 01210.Na for (A) 2 hrs or (B) 24 hrs. The cells were then plated into methocult medium. Total colony forming units were determined 14 days later.
The ability of ON 01210.Na to protect primary human bone marrow cells from cytotoxic doses of radiation was studied in an in vitro assay. Initially, cytotoxicity studies were performed. Human bone marrow cells isolated from healthy volunteers were treated with increasing concentrations of ON 01210.Na for 2 and 24 hours and plated into methocult.
FIG. 2. ON 01210.Na was not cytotoxic to human bone marrow cells in vitro. Human bone marrow cells were treated with various concentrations of ON 01210.Na for (A) 2 hrs or (B) 24 hrs. The cells were then plated into methocult medium. Total colony forming units were determined 14 days later.

[2] = system: white blood cells, platelets, hematocrit and hemoglobin levels; test: Hematology in irradiated rabbits; format: in vivo, New Zealand white rabbits
Procedure: (§1) Unlike in the mouse studies, clear evidence of improved repopulation of various hematologic cell lineages was not evident in these preliminary studies. Both solution and suspension formulations were tested.

[3] = system: HFL-1 (normal diploid lung fibroblasts) cells; test: Clonogenic assay, radioprotection of HFL-1 cells against ionizing radiation; format: cell-based, human
Excerpt: FIG. 1. Protection of HFL-1 cells against Ionizing Radiation (IR) by ON 01210.Na. Following drug treatment and radiation exposure, cells were re-plated and the number of colonies from each plate was enumerated three weeks later. A. Relation of concentration of ON 01210.Na to number of surviving colonies. B. Stained clonogenic assay plates.
A clonogenic assay was used to measure radioprotection of ON 01210.Na on cultured human cells. Treatment of HFL-1 (normal diploid lung fibroblasts) cells with 2-20 μM of ON 01210.Na for 24 hours prior to cytotoxic levels of Ionizing Radiation (IR) (10 Gy) provided 3.3-4.7 fold protection in a dose-dependent manner (see FIG. 1A).HFL-1 cells, were treated with ON 01210.Na at final concentrations ranging from 2.0 to 20.0 μM. In a second experiment, cells were also treated with the drug for 24 h, but the drug was applied 4 h after irradiation.
Following drug treatment and radiation exposure, cells were re-plated and the number of colonies from each plate was enumerated three weeks later. A. Relation of concentration of ON 01210.Na to number of surviving colonies. B. Stained clonogenic assay plates.

[4] = system: 67 radioligand receptor binding assays; test: Panel of 67 radioligand receptor binding assays; details: in vitro primary screening
Procedure: Additional biochemical studies were performed to screen for potential secondary or non-specific activities. ON 01210.Na was subjected to in vitro primary screening across a broad panel of 67 radioligand receptor binding assays and five cytochrome P450 enzymes: 1A2, 2C9, 2C19, 3A4, and 2D6. […] Only one cytochrome assay, CYP450 2C9, in which the activity was […] 98%, yielded a response that was considered significant. Thus, as a preliminary screen for safety and selectivity profiling, no targets were identified.

cells = format: cell-based
[5] = system: apoptosis-specific signaling events; test: Signaling studies, apoptosis-specific signaling after radiation; format: cell-based; details: treatment prior to radiation exposure
Excerpt: To analyze and investigate the efficacy of a cytotoxic protective drug, biological assays were developed that assisted in determination of the mechanism of action of these drugs at the intracellular level. In the case of ON 01210.Na, certain components of cellular and DNA damage-sensing, repair, and apoptosis pathways were studied in more detail.

[6] = system: p53, p21, bax, c-abl and p73; test: Protein levels in cells in response to radiation exposure; format: cell-based
Excerpt: This reduction could be instrumental in decreased cell death and increased cell recovery in ON 01210.Na pretreated irradiated cells.

[7] = system: New Zealand white rabbits; test: Survival studies in rabbits after lethal doses of radiation; format: in vivo; details: 120 mg/kg at 24 hours and 15 minutes before lethal doses of radiation
Procedure: as §1

human bone marrow cells [8] = test: In vitro radiation protection of human bone marrow cells (methocult CFU); format: cell-based; details: 3 hour treatment, no radiation, all concentrations tested; sodium salt
human bone marrow cells [9] = test: as above; format: cell-based
Procedure: FIG. 3. In vitro radiation protection of human bone marrow cells. Human bone marrow cells were treated with increasing concentrations of ON 01210.Na for 3 hours, and then irradiated with increasing doses of ionizing radiation. The cells were plated into methocult and the total number of CFUs was determined 14 days later.
Radiation protection assays were then performed (FIG. 3). Cells were treated with ON 01210.Na for 3 hours, irradiated, and plated in methocult. The total number of colony forming units was determined 14 days later. […] This compared very favorably when analyzed against protection studies using amifostine as a positive control.
Human bone marrow cells were treated with increasing concentrations of ON 01210.Na for 3 hours, and then irradiated with increasing doses of ionizing radiation. The cells were plated into methocult and the total number of CFUs was determined 14 days later.
When we plotted the survival curve at the optimal concentration of ON 01210.Na (FIG. 3C) we were able to calculate a dose reduction factor (DRF) of 1.6. We also tested the radiation protection activity of amifostine. Amifostine concentrations were selected that closely mimicked the therapeutic plasma concentrations. […] The calculated DRF value of 1.5 was determined from these experiments.

O=C([O-])c1ccc(/C=C/S(=O)(=O)Cc2ccc(Cl)cc2)cc1.[Na+] [ON 01210.Na, E-4-Carboxystyryl-4-chlorobenzylsulfone sodium salt]
cytotoxicity to human bone marrow cells (total colony forming units) (human bone marrow cells [1]): non cytotoxic; also recorded: not cytotoxic; also recorded: nontoxic | white blood cells, platelets, hematocrit and hemoglobin levels ([2]; 120 mg/kg at 24 hours and 15 minutes before lethal radiation): general protective trend | improved repopulation of hematologic cell lineages ([2]; preliminary studies): not evident | fold protection (surviving colonies) ([3]; 2-20 μM for 24 hours prior to 10 Gy IR, dose-dependent): 3.3-4.7 fold | number of cells per colony ([3]; ON 01210.Na treated group after IR): significant larger | protection from radiation exposure (clonogenic survival) ([3]; human lung fibroblasts): protected | protection when cells treated post irradiation ([3]; treated four hours post irradiation exposure, 24 h): significant protection | inhibition or stimulation of receptor binding [4]: No significant inhibition or stimulation | cell cycle arrest (cells): did not cause cell cycle arrest | cytotoxicity (cells): not cytotoxic | level of apoptosis-specific signaling events [5]: reduced the level of apoptosis-specific signaling events | protein level of bax [6]: significantly reduce | protein level of c-abl [6]: significantly reduce | protein level of p21 [6]: significantly reduce | protein level of p53 [6]: significantly reduce | protein level of p73 [6]: significantly reduce | survival relative to vehicle-treated animals [7]: survival benefit | toxicity of treatment without radiation (human bone marrow cells [8]): non-toxic at all concentrations tested; also recorded: completely safe | range of concentrations that protected cells (human bone marrow cells [9]): 10 fold | optimal concentration for radiation protection (human bone marrow cells [9]; 3 hours treatment): 10 µM | radiation protection of human bone marrow cells (human bone marrow cells [9]; 3 hours treatment before irradiation, sodium salt): protect human bone marrow cells in a dose dependent manner; also recorded: protected human bone marrow cells in a dose responsive manner; also recorded: very effective; also recorded: reproducibly protect | dose reduction factor (DRF) (human bone marrow cells [9]; ON 01210.Na 10 μM (optimal), 3 hours before irradiation): 1.6
